Blank lines part the entries; values can stand above or below the substance they belong to.
Assays:
[1] = target: type I PTH/PTH-related peptide receptor (PTH1R), endogenous in primary murine osteoblasts (mouse) (UniProt P41593); assay: cell-based or functional assay
PTH1 receptor = details: Gardella 1996; Sneddon 2004; Bisello 2002; cited from earlier work
[2] = target: T1, AT1A angiotensin receptor (Rattus norvegicus, UniProt P25095); details: cited from earlier work
T1 sequence (P25095 1-359): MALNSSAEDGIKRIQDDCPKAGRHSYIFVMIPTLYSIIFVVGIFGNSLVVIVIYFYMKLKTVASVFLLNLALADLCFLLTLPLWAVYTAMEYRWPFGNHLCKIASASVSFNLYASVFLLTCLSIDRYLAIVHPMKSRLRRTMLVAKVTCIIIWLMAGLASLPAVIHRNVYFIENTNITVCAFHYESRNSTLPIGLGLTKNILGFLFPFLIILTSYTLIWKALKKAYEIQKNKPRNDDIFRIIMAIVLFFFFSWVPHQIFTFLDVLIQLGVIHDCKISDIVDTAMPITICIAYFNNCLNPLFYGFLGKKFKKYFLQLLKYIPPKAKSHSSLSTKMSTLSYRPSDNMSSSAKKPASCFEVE

type I PTH/PTH-related peptide receptor (PTH1R), endogenous in primary murine osteoblasts (mouse), sequence (P41593 27-591): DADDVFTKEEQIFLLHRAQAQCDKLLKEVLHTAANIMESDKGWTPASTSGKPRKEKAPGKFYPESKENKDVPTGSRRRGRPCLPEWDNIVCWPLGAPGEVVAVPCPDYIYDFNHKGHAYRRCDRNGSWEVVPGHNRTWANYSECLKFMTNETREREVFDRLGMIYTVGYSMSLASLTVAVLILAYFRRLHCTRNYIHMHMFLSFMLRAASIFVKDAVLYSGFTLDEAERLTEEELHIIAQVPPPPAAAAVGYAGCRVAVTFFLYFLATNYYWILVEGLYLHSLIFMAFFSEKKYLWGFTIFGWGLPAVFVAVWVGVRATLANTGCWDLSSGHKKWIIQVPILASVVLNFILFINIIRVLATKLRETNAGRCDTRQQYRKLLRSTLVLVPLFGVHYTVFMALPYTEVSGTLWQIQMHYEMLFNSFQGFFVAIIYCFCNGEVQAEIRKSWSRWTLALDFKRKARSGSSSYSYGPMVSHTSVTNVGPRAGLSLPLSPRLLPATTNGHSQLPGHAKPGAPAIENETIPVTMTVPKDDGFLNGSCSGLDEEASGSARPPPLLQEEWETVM

ERK1/2 phosphorylation in WT primary osteoblasts, 1 µM PTH-βarr, 5 min (fold over basal) [1]: 3
Substance: (D-Trp12, Tyr34)-PTH(7-34) (from UniProt P01268 38-65) (peptide)

ERK1/2 phosphorylation in WT primary osteoblasts, 100 nM PTH(1-34), 5 min (fold over basal) [1]: 3
Substance: PTH(1-34) (peptide)

Substance: Trp^l-PTHrP(1-36) (WVSEHQLLHDKGKSIQDLRRRFFLHHLIAEIHTAEI; Parathyroid hormone-related protein; UniProt P12272 37-72, looked up, variant A1W) [PTHrP analog promoting Gs-coupling without β-arrestin recruitment, reference compound]
PTH1 receptor-Gs coupling / cAMP production (PTH1 receptor): promoting Gs-coupling and cAMP production
arrestin-dependent sequestration / β-arrestin recruitment (PTH1 receptor): without inducing β-arrestin recruitment or desensitization

Substance: [Sar1,Ile4,Ile8]SII
G protein-independent/β-arrestin-dependent signaling to ERK1/2 [2]: selectively stimulating G protein-independent/β-arrestin-dependent 7TMR signaling to ERK1/2

Reference: patent US20110178015A1, “METHODS OF TREATMENT USING BIASED LIGANDS FOR RECEPTORS SUCH AS THE PTH RECEPTOR” (priority 2007, published 2011)
